Values joined by “and” are separate entries in the source; they are usually repeats but may differ in a detail not shown here. Equal entries are not always repeated. Marks after values point to notes of the source that are not given here.
Key:
[1] = In vivo intracolonic (i.c.) dosing (Protocol 3): plasma and colon concentrations; set-up: species or system C57BL/6 mice; conditions: mice, 5 mg/kg intracolonic in 20% HPβCD; for Plasma Concentration After i.c. Dosing, Time = 2 h, Mean: 2 h post dose; for Plasma Concentration After i.c. Dosing, Time = 4 h, Mean: 4 h post dose
Excerpt: Plasma and colon concentration results were obtained by following Protocol 1 using venipuncture of dorsal metatarsal vein bleed for Compounds (B), (C), and Examples 6 and 11. Plasma and colon concentration results were obtained by following Protocol 2 using retro-orbital bleed for Compounds (A), and Examples 1, and 3-5 and Protocol 2 using venipuncture of the dorsal metatarsal vein for Examples 2, 7-10, and 12. Plasma and colon concentration results were obtained by following Protocol 3 for Examples 1, 3 and 4. These protocols are described below under the heading In vivo Studies.
Intracolonic (IC) dose group: Following anesthesia with isoflurane by inhalation, three non-fasted female C57BL/6 mice were administered the compound intracolonically through a small incision in the abdominal wall using a syringe and needle at a dose of 5 mg/kg as a solution in 20% HPβCD at a dose volume of 1 mL/kg. Blood samples were collected at 0.5, 2, and 4 h post dose via retro-orbital bleed. Blood samples were collected into tubes containing anticoagulant (Heparin-Na) and placed on wet ice. The plasma fraction was separated by centrifugation and frozen at −20° C. for up to 4 h and −80° C. after 4 h unless analyzed shortly after sample collection. Colon samples were collected at 4 h post dose. From 2 cm below the cecum, a 4-cm sample of the colon was dissected, cut open on the longitudinal axis, and the solid contents removed by flushing with 2 mL of saline. The colon was further washed by putting it in 5 mL of saline and shaken for 5 seconds. The colon sample was then patted dry, weighed, and homogenized as 1 part tissue (g) to 4 parts HPLC grade water (mL). Concentrations of the compound in plasma and colon homogenate were determined using a qualified liquid chromatography-triple quadrupole mass spectrometry (LC-MS/MS) method. This protocol was used to evaluate IC dosing of the following test compounds: Examples 1, 3, and 4.

MDCK-MDR1 cell line = test: MDCK-MDR1 permeability assay; type: in vitro ADME; conditions: apical-to-basolateral, with P-gp inhibitor elacridar (2 μM), 60 min
Method: Permeability measurements were conducted according to the Cyprotex protocol using the MDCK-MDR1 cell line obtained from the NIH (Rockville, Md., USA). […] The cells in this assay form a cohesive sheet of a single cell layer filing the surface area of the culture dish, also known as a confluent monolayer, and on day four the test compound was added to the apical side of the membrane and the transport of the compound across the monolayer was monitored over a time period of 60 min.
Test compounds were dissolved in DMSO at a concentration of 10 mM. The dosing solutions were prepared by diluting test compound with assay buffer (Hanks Balanced Salt Solution), pH 7.4, at a final concentration of 5 μM. For assessment of apical to basolateral (“A-B”) permeability, buffer was removed from the apical compartment and replaced with test compound dosing solution with or without the permeability glycoprotein (“PgP”, “P-gP”, “Pgp” or “P-gp”) inhibitor elacridar (2 μM). For assessment of basolateral to apical (“B-A”) permeability, buffer was removed from the companion plate and replaced with test compound dosing solution. Incubations were carried out in duplicate at 37° C. in an atmosphere of 5% CO2 with a relative humidity of 95%. Each assay included the reference markers propranolol (high permeability) and prazosin (PgP substrate). After incubation for 60 minutes, apical and basolateral samples were diluted and test compounds quantified by LC/MS/MS using an 8-point calibration in the range 0.0039 to 3 μM with appropriate dilution of the samples (receiver dilution factor=1; donor and Co dilution factor=10). The permeability coefficient (Papp) for each compound was calculated from the following equation: Papp=(dQ/dt)/(C0×S), where dQ/dt is the rate of permeation of the drug across the cells, Co is the donor compartment concentration at time zero, and S is the area of the cell monolayer.
Papp(A-B) gives an indication of permeation extent across the cells in this assay, which is envisaged to model the transcellular transport across Pgp-expressing cells, such as Pgp-expressing gastrointestinal tract cells.

[2] = In vivo p.o. dosing (Protocols 1 and 2): plasma and colon concentrations; set-up: species or system C57BL/6 mice; conditions: mice, 25 mg/kg p.o. in 20% HPβCD; for Plasma Concentration After p.o. Dosing, Time = 4 h, Mean: 4 h post dose; for Plasma Concentration After p.o. Dosing, Time = 0.5 h, Mean: 0.5 h post dose; for Plasma Concentration After p.o. Dosing, Time = 2 h, Mean: 2 h post dose; for Colon Concentration After p.o. Dosing, Time = 4 h, Mean: colon 4 h post dose
Method: These protocols are described below under the heading In vivo Studies.
(§1) Three non-fasted female C57BL/6 mice were orally administered test compound at a dose of 25 mg/kg p.o. as a solution in 20% hydroxypropyl-beta-cyclodextrin (HPβCD) at a dose volume of 5 mL/kg. Blood samples were collected at 0.5, 2, and 4 h post dose via retro-orbital bleed or venipuncture of the dorsal metatarsal vein. Blood samples were collected into tubes containing anticoagulant (Heparin-Na) and placed on wet ice. The plasma fraction was separated by centrifugation and frozen at −20° C. for up to 4 h and −80° C. after 4 h unless analyzed shortly after sample collection. Colon samples were collected at 4 h post dose. From the beginning of the cecum, a 4-6 cm sample of the colon was dissected, cut open on the longitudinal axis, and the solid contents removed by flushing with 2 mL of saline. The colon was further washed by putting it in 5 mL of saline and shaken for 5 seconds. The colon sample was then patted dry, weighed, and homogenized as 1 part tissue (g) to 4 parts HPLC grade water (mL). Concentrations of the compound in plasma and colon homogenate were determined using a qualified liquid chromatography-triple quadrupole mass spectrometry (LC-MS/MS) method.
as §1, with “HPβCD” for “hydroxypropyl-beta-cyclodextrin (HPβCD)”, “or” for “or venipuncture of the”, “2 cm below” for “the beginning of”, “4” for “4-6”

Structure (SMILES) | MDCK-MDR1 P^eapp(A-B) @ 5 μM (MDCK-MDR1 cell line) | Plasma Concentration After p.o. Dosing, Time = 4 h, Mean [2] | further results
CC(C)(O)CNC(=O)Cc1nc2cnc3[nH]ccc3c2n1[C@H]1CC[C@H](CC#N)CC1 [Ex. 1, 2-(1-((1r,4r)-4-(Cyanomethyl)cyclohexyl)-1,6-dihydroimidazo[4,5-d]pyrrolo[2,3-b]pyridin-2-yl)-N-(2-hydroxy-2-methylpropyl)acetamide] |  |  | Plasma Concentration After i.c. Dosing, Time = 2 h, Mean [1]: ^∧; Plasma Concentration After i.c. Dosing, Time = 4 h, Mean [1]: ^∧
N#CCC12CCC(NC(=O)Cc3nc4cnc5[nH]ccc5c4n3[C@H]3CC[C@H](CC#N)CC3)(CC1)C2 [Ex. 10, N-(4-(Cyanomethyl)bicyclo[2.2.1]heptan-1-yl)-2-(1-((1r,4r)-4-(cyanomethyl)cyclohexyl)-1,6-dihydroimidazo[4,5-d]pyrrolo[2,3-b]pyridin-2-yl)acetamide] | 1.1 10^−6 cm/sec |  | 
N#CC[C@H]1CC[C@H](n2c(CC(=O)NC3CCOCC3)nc3cnc4[nH]ccc4c32)CC1 [Ex. 5, 2-(1-((1r,4r)-4-(cyanomethyl)cyclohexyl)-1,6-dihydroimidazo[4,5-d]pyrrolo[2,3-b]pyridin-2-yl)-N-(tetrahydro-2H-pyran-4-yl)acetamide] | 0.7 10^−6 cm/sec and 0.5 10^−6 cm/sec |  | 
N#CC[C@H]1CC[C@H](n2c(CC(=O)NCC3CCOCC3)nc3cnc4[nH]ccc4c32)CC1 [Ex. 6, 2-(1-((1r,4r)-4-(Cyanomethyl)cyclohexyl)-1,6-dihydroimidazo[4,5-d]pyrrolo[2,3-b]pyridin-2-yl)-N-((tetrahydro-2H-pyran-4-yl)methyl)acetamide] | 0.9 10^−6 cm/sec and 1.1 10^−6 cm/sec | 1.7^# ng/mL | 
C[C@@H](O)c1nc2cnc3[nH]ccc3c2n1[C@H]1CC[C@H](CC#N)CC1 [C] |  | 16.7 ng/mL | Plasma Concentration After p.o. Dosing, Time = 0.5 h, Mean [2]: 547.0 ng/mL; Plasma Concentration After p.o. Dosing, Time = 2 h, Mean [2]: 130.2 ng/mL; Colon Concentration After p.o. Dosing, Time = 4 h, Mean [2]: 7776.7 ng/g
N#CCC1CCC(n2c(-c3c[nH]cn3)nc3cnc4[nH]ccc4c32)CC1 (stereo not shown) [Ex. 2, 2-((1r,4r)-4-(2-(1H-Imidazol-4-yl)imidazo[4,5-d]pyrrolo[2,3-b]pyridin-1(6H)-yl)cyclohexyl)acetonitrile] | 1.6 10^−6 cm/sec |  | 
N#CC[C@H]1CC[C@H](n2c(CC(=O)Nc3cc[nH]n3)nc3cnc4[nH]ccc4c32)CC1 [Ex. 11, 2-(1-((1r,4r)-4-(Cyanomethyl)cyclohexyl)-1,6-dihydroimidazo[4,5-d]pyrrolo[2,3-b]pyridin-2-yl)-N-(1H-pyrazol-3-yl)acetamide] | 0.8 10^−6 cm/sec | ^∧ | Plasma Concentration After p.o. Dosing, Time = 2 h, Mean [2]: ^∧
CC(C)(C#N)CNC(=O)Cc1nc2cnc3[nH]ccc3c2n1[C@H]1CC[C@H](CC#N)CC1 [Ex. 7, N-(2-Cyano-2-methylpropyl)-2-(1-((1r,4r)-4-(cyanomethyl)cyclohexyl)-1,6-dihydroimidazo[4,5-d]pyrrolo[2,3-b]pyridin-2-yl)acetamide] | 1.2 10^−6 cm/sec |  | 
Cc1nc2cnc3[nH]ccc3c2n1[C@H]1CC[C@H](CC#N)CC1 [A] |  | 84.5 ng/mL | Plasma Concentration After p.o. Dosing, Time = 0.5 h, Mean [2]: 347.0 ng/mL; Plasma Concentration After p.o. Dosing, Time = 2 h, Mean [2]: 69.1 ng/mL; Colon Concentration After p.o. Dosing, Time = 4 h, Mean [2]: 895.0 ng/g
N#CC[C@H]1CC[C@H](n2c(CO)nc3cnc4[nH]ccc4c32)CC1 [B] |  | 11.3 ng/mL | Plasma Concentration After p.o. Dosing, Time = 0.5 h, Mean [2]: 352.7 ng/mL; Plasma Concentration After p.o. Dosing, Time = 2 h, Mean [2]: 66.3 ng/mL; Colon Concentration After p.o. Dosing, Time = 4 h, Mean [2]: 6076.7 ng/g
N#CCCNC(=O)Cc1nc2cnc3[nH]ccc3c2n1[C@H]1CC[C@H](CC#N)CC1 [Ex. 4, N-(2-Cyanoethyl)-2-(1-((1r,4r)-4-(cyanomethyl)cyclohexyl)-1,6-dihydroimidazo[4,5-d]pyrrolo[2,3-b]pyridin-2-yl)acetamide] | 0.5 10^−6 cm/sec |  | Plasma Concentration After i.c. Dosing, Time = 4 h, Mean [1]: ^∧
N#CC[C@H]1CC[C@H](n2c(CC(=O)NCC3CC3)nc3cnc4[nH]ccc4c32)CC1 [Ex. 3, 2-(1-((1r,4r)-4-(Cyanomethyl)cyclohexyl)-1,6-dihydroimidazo[4,5-d]pyrrolo[2,3-b]pyridin-2-yl)-N-(cyclopropylmethyl)acetamide] | 2.3 10^−6 cm/sec and 1.6 10^−6 cm/sec |  | Plasma Concentration After i.c. Dosing, Time = 2 h, Mean [1]: ^∧; Plasma Concentration After i.c. Dosing, Time = 4 h, Mean [1]: ^∧
N#CC[C@H]1CC[C@H](n2c(CC(=O)NCC3(O)CC3)nc3cnc4[nH]ccc4c32)CC1 [Ex. 12, 2-(1-((1r,4r)-4-(Cyanomethyl)cyclohexyl)-1,6-dihydroimidazo[4,5-d]pyrrolo[2,3-b]pyridin-2-yl)-N-((1-hydroxycyclopropyl)methyl)acetamide] | 0.6 10^−6 cm/sec |  | 
N#CC[C@H]1CC[C@H](n2c(CC(=O)NCC3(O)CCC3)nc3cnc4[nH]ccc4c32)CC1 [Ex. 8, 2-(1-((1r,4r)-4-(Cyanomethyl)cyclohexyl)-1,6-dihydroimidazo[4,5-d]pyrrolo[2,3-b]pyridin-2-yl)-N-((1-hydroxycyclobutyl)methyl)acetamide] | 0.5 10^−6 cm/sec |  | 
Cn1cc(NC(=O)Cc2nc3cnc4[nH]ccc4c3n2[C@H]2CC[C@H](CC#N)CC2)cn1 [Ex. 9, 2-(1-((1r,4r)-4-(Cyanomethyl)cyclohexyl)-1,6-dihydroimidazo[4,5-d]pyrrolo[2,3-b]pyridin-2-yl)-N-(1-methyl-1H-pyrazol-4-yl)acetamide] | 0.6 10^−6 cm/sec |  | 

Reference: US11066406B2, “Small molecule inhibitors of the JAK family of kinases” (Janssen Pharmaceutica NV, priority 2018, dated 2021)
